Results taken from patent US10577400B2, “Method of manufacturing recombinant lectin protein and recombinant lectin protein manufactured by using the same” (NATIONAL MARINE BIODIVERSITY INSTITUTE OF KOREA, priority 2017, dated 2020).
Values after ≈ are worked out from the molar mass of the structure shown. Read-outs that look alike come from different tables or passages of the source. Marks after values point to notes of the source that are not given here.

Experiments:
[1] = test system: Native BPL3; test: Inhibition of hemagglutination activity of Native BPL3 by sugars; format: cell-based, Bryopsis plumosa
[2] = test system: rD2BPL3; test: Inhibition of hemagglutination activity of rD2BPL3 (refolded rBPL3) by sugars; format: cell-based, Bryopsis plumosa; settings: for Minimum inhibitory concentration: inhibition of hemagglutination activity of rD2BPL3; for Concentration at which hemagglutination activity of rBPL3 was inhibited: refolded rBPL3, FIG. 8, running text
Procedure: FIG. 8 is a photograph showing that the activity of the refolded rBPL3 is inhibited by N-acetyl D-glucosamine and N-acetyl D-glactosamine. Referring to FIG. 8, experiments on inhibition of hemagglutination activity for 10 kinds of sugars including GlcNAc and GaINAc which inhibited hemagglutination activity of Native BPL3 were conducted.

[3] = biological target: Fetuin; test: cell-based or functional assay
[4] = Glycan binding specificity, RayBio Glycan Array 100
Procedure: Affinity with glycans was measured using RayBio® Glycan Array 100. The rBPL3 and the Native BPL3 were conjugated with biotin and then dialyzed to remove unreacted biotin.
FIG. 9 is a graph for comparing glycan binding specificities of Native BPL3, rD1BPL3, and rD2BPL3.

[5] = biotin-conjugated lectin, FIG. 9

Molecule | Minimum inhibitory concentration [1] | Minimum inhibitory concentration [2] | other results
O=C[C@@H](O)[C@@H](O)[C@H](O)[C@H](O)CO [d-Mannose] | NI (the absence of inhibition at 500 mM) | NI (the absence of inhibition at 500 mM) | Minimum inhibitory concentration ([1]; listed as α-Man): not inhibited; Minimum inhibitory concentration ([2]; listed as α-Man): not inhibited
C[C@@H]1OC(O)[C@@H](O)[C@H](O)[C@@H]1O (stereo partly drawn) [1-Fucose] | NI (the absence of inhibition at 500 mM) | NI (the absence of inhibition at 500 mM) | –
O=C[C@H](O)[C@@H](O)[C@H](O)[C@H](O)CO [d-Glucose] | NI (the absence of inhibition at 500 mM) | NI (the absence of inhibition at 500 mM) | –
CC(=O)N[C@H]1C(O)O[C@H](CO)[C@@H](O)[C@@H]1O (stereo partly drawn) [N-acetyl-d-glucosamine] | 125 mM (≈ 27.7 mg/mL) | 62.5 mM (≈ 13.8 mg/mL) | Concentration at which hemagglutination activity of rBPL3 was inhibited [2]: 125 mM
O=C(CO)[C@@H](O)[C@H](O)[C@H](O)CO [d-Fructose] | NI (the absence of inhibition at 500 mM) | NI (the absence of inhibition at 500 mM) | –
OC[C@H]1O[C@H](O[C@H]2[C@H](O)[C@@H](O)[C@H](O)O[C@@H]2CO)[C@H](O)[C@@H](O)[C@@H]1O [d-Maltose] | NI (the absence of inhibition at 500 mM) | NI (the absence of inhibition at 500 mM) | –
Native BPL3 (Bryopsis plumosa lectin 3 derived from Bryopsis plumosa) | – | – | Minimum inhibitory concentration (inhibition of hemagglutination activity) [3]: 19.5 µg/mL
OC[C@H]1O[C@@H](O[C@H]2[C@H](O)[C@@H](O)[C@H](O)O[C@@H]2CO)[C@H](O)[C@@H](O)[C@H]1O [β-Lactose] | NI (the absence of inhibition at 500 mM) | NI (the absence of inhibition at 500 mM) | –
O=C[C@H](O)[C@@H](O)[C@@H](O)[C@H](O)CO [d-Galactose] | NI (the absence of inhibition at 500 mM) | NI (the absence of inhibition at 500 mM) | –
CC(=O)N[C@H]1C(O)O[C@H](CO)[C@H](O)[C@@H]1O (stereo partly drawn) [N-acetyl-d-galactosamine] | 62.5 mM (≈ 13.8 mg/mL) | 31.25 mM (≈ 6.91 mg/mL) | Concentration at which hemagglutination activity of rBPL3 was inhibited [2]: 62.5 mM
rD2BPL3 (recombinant BPL3 lectin obtained by the gene having the repeating structure) (protein, part only; not given: spacer and vector tag, not shown: small tags and cut ends) chain, part: TDVGSVQVRGLGDRSSCPVKPWTTAQTSAREKVVSVKFDIPYSSTPKVALSLSGMDMDTKYNTRINTSVENLTNEGFDLKVGVWCNTYAYMLDVTYVVVPAPYAAGTDVGSVQVRGLGDRSSCPVKPWTTAQTSAREKVVSVKFDIPYSSTPKVALSLSGMDMDTKYNTRINTSVENLTNEGFDLKVGVWCNTYAYMLDVTYVVVPAPYAAG | – | – | Minimum inhibitory concentration (inhibition of hemagglutination activity) [3]: 4.88 µg/mL
Fetuin (protein, UniProt P12763 19-359, looked up) Alpha-2-HS-glycoprotein: IPLDPVAGYKEPACDDPDTEQAALAAVDYINKHLPRGYKHTLNQIDSVKVWPRRPTGEVYDIEIDTLETTCHVLDPTPLANCSVRQQTQHAVEGDCDIHVLKQDGQFSVLFTKCDSSPDSAEDVRKLCPDCPLLAPLNDSRVVHAVEVALATFNAESNGSYLQLVEISRAQFVPLPVSVSVEFAVAATDCIAKEVVDPTKCNLLAEKQYGFCKGSVIQKALGGEDVRVTCTLFQTQPVIPQPQPDGAEAEAPSAVPDAAGPTPSAAGPPVASVVVGPSVVAVPLPLHRAHYDLRHTFSGVASVESSSGEAFHVGKTPIVGQPSIPGGPVRLCPGRIRYFKI | – | – | Minimum inhibitory concentration ([1]; concentration in μg/mL): 19.53^§ μg/mL; Minimum inhibitory concentration ([2]; concentration in μg/mL): 4.88^§ μg/mL
Native BPL3: BPL3 (Bryopsis plumosa lectin) derived from bryopsis plumosa, comparative target (protein, bryopsis plumose-derived BPL3 gene, BPL3 (Bryopsis plumosa lectin) derived from bryopsis plumosa, comparative target) TDVGSVQVRGLGDRSSCPVKPWTTAQTSAREKVVSVKFDIPYSSTPKVALSLSGMDMDTKYNTRINTSVENLTNEGFDLKVGVWCNTYAYMLDVTYVVVPAPYAAG | – | – | Glycan giving a strong signal [4, 5]: strong signal for a glycan of Gal-β-1,3-GaINAc-α-Sp; Number of glycans reacted with, of 100 glycans [4, 5]: 5; Binding to α-Man-Sp ([4]; glycan array): specifically bound; Binding to β-GlcNAc-Sp ([4]; glycan array): does not react
